Measured values reported in ChEMBL document CHEMBL5291721, “A preclinical secondary pharmacology resource illuminates target-adverse drug reaction associations of marketed drugs” (Nat Commun, 2023).

How the values were obtained:
[1] = molecular target: T1, Thromboxane A2 receptor (Homo sapiens, UniProt P21731); assay type: functional, cell-based
T1 sequence (P21731 whole entry): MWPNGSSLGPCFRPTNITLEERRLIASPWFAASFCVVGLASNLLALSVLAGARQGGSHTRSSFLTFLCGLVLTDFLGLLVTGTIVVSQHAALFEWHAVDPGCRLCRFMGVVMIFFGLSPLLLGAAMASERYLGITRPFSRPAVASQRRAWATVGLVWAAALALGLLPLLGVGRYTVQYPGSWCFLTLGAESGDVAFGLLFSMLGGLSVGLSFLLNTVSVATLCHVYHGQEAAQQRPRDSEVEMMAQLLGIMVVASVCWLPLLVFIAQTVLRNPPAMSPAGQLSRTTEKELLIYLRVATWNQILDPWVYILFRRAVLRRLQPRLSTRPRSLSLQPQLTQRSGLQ

[2] = molecular target: T1, Thromboxane A2 receptor; assay type: functional
[3] = molecular target: 5-hydroxytryptamine receptor 2B (Homo sapiens, UniProt P41595)
Chain of 5-hydroxytryptamine receptor 2B (P41595 whole entry): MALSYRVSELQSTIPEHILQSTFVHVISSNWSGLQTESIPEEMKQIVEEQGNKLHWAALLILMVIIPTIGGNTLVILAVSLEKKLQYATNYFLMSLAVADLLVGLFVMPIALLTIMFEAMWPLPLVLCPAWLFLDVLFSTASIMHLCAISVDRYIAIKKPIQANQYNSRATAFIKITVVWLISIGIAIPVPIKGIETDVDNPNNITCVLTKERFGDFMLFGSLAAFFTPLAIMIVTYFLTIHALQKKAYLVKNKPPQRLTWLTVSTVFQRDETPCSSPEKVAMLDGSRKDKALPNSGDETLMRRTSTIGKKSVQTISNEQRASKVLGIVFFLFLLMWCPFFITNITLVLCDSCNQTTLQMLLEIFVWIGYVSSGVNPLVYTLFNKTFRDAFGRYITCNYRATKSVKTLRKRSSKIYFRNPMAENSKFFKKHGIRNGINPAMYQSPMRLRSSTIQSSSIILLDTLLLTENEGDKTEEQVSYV

[4] = molecular target: T2, Bile acid receptor (Homo sapiens, UniProt Q96RI1); assay type: functional
T2 sequence (Q96RI1 whole entry): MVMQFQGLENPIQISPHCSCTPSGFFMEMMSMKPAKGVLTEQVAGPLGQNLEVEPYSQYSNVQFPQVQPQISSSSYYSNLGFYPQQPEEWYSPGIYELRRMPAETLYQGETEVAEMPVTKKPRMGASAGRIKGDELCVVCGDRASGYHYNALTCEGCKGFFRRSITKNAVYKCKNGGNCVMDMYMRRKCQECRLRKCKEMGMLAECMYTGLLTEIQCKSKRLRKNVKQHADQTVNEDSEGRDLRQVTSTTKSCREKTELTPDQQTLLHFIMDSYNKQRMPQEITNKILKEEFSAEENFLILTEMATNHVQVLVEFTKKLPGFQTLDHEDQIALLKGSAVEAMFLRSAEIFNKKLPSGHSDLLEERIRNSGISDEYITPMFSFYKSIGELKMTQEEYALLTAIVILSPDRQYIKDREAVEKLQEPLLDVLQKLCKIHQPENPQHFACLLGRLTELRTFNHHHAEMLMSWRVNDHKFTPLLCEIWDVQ

[5] = molecular target: T3, Retinoic acid receptor gamma (Homo sapiens, UniProt P13631); assay type: functional, cell-based
T3 sequence (P13631 whole entry): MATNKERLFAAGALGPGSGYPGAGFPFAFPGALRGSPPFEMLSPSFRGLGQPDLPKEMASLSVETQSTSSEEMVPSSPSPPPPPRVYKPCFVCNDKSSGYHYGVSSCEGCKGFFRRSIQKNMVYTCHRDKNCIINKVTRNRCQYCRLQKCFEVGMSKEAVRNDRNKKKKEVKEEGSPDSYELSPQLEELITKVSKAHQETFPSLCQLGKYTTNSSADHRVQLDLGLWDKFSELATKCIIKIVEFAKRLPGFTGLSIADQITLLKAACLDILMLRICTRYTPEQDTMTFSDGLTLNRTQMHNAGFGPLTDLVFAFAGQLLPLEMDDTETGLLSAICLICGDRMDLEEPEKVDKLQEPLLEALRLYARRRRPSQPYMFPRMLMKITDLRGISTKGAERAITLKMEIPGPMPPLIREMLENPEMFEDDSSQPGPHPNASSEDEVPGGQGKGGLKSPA

[6] = molecular target: T2, Bile acid receptor; assay type: functional; remark: listed apart in the source
[7] = molecular target: T4, Retinoic acid receptor beta (Homo sapiens, UniProt P10826); assay type: functional, cell-based
T4 sequence (P10826 whole entry): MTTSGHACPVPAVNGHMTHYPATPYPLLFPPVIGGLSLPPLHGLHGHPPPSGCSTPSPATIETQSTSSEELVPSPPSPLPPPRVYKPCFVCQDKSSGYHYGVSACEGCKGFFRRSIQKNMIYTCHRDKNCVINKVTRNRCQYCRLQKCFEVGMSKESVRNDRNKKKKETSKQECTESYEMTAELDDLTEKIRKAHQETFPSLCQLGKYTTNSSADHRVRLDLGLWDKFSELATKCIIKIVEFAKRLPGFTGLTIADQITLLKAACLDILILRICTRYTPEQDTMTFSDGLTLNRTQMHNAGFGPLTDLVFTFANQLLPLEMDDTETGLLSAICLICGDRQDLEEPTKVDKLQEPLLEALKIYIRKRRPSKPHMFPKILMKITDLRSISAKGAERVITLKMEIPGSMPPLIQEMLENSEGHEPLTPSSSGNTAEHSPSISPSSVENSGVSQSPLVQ

[8] = molecular target: T5, Oxysterols receptor LXR-alpha (Homo sapiens, UniProt Q13133); assay type: functional
T5 sequence (Q13133 whole entry): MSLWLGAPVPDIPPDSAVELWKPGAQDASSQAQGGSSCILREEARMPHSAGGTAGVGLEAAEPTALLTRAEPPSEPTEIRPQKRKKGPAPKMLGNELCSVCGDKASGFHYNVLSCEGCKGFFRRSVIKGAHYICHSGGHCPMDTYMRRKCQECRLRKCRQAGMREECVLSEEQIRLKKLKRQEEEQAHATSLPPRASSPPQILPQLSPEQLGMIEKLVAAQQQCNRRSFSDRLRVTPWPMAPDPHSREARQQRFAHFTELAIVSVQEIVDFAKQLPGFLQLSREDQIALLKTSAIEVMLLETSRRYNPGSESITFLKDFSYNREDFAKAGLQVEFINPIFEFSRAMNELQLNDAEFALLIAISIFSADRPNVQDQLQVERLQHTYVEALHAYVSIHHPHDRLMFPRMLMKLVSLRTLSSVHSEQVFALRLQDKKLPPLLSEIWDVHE

[9] = molecular target: T6, Peroxisome proliferator-activated receptor alpha (Homo sapiens, UniProt Q07869); assay type: functional
T6 sequence (Q07869 whole entry): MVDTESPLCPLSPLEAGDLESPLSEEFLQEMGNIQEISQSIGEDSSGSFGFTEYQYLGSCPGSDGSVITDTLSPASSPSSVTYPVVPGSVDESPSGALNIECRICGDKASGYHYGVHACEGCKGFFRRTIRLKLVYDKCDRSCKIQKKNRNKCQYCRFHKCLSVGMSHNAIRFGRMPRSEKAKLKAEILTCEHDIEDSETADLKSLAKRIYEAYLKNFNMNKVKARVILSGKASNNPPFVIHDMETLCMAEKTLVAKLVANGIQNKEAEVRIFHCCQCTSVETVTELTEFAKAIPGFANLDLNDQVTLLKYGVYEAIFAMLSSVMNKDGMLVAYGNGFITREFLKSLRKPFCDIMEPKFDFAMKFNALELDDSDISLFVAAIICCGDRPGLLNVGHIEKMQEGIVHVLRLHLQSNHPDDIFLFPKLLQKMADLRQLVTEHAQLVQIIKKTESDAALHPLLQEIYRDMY
Note: assay procedure not described here.

Row | AC50 [1] | AC50 [2] | AC50 [3] | Compound | AC50 [4] | AC50 [5] | AC50 [6] | AC50 [7] | AC50 [8] | AC50 [9]
1 | > 30 µM | > 30 µM | 1.01 µM | N=C(N)NC(=O)Cc1c(Cl)cccc1Cl [GUANFACINE] | – | – | – | – | – | –
2 | – | – | – | CC(=O)N1CCN(c2ccc(OCC3COC(Cn4ccnc4)(c4ccc(Cl)cc4Cl)O3)cc2)CC1 (centres undefined) [KETOCONAZOLE] | 15 µM | > 30 µM | > 30 µM | 3.3 µM | > 10 µM | > 30 µM
